Test results as given in ChEMBL document CHEMBL5465560, “Selectivity Literature for EUbOPEN Chemogenomic Library” (2024).

Columns and labels:
[1] = target: Serine/threonine-protein kinase MARK1 (Homo sapiens) (UniProt Q9P0L2); assay: Selectivity interaction (Upstate Kinase Profiler service (Millipore)) EUB0000056c MARK1; settings: at 1 µM
[2] = target: T1, Phosphatidylinositol 5-phosphate 4-kinase type-2 beta (Homo sapiens) (UniProt P78356); assay: Selectivity interaction (KinomeScan (DiscoverX)) EUB0000655a PIP4K2B; settings: at 10 µM
T1 sequence (whole entry): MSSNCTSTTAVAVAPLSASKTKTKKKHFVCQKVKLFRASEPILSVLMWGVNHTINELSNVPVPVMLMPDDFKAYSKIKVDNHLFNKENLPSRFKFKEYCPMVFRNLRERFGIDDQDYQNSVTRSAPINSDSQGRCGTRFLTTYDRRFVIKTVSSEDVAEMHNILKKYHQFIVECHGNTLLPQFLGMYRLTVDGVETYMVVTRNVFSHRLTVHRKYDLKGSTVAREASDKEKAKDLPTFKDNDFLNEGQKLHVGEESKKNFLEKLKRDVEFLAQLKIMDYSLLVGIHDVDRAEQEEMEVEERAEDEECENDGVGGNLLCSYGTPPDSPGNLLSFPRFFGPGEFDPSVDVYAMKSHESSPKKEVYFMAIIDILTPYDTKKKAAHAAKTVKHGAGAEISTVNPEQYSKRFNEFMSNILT

[3] = target: Tyrosine-protein kinase JAK1 (Homo sapiens, UniProt P23458); assay: Selectivity interaction (ProQinase) EUB0000171b JAK1
Tyrosine-protein kinase JAK1, sequence (P23458 whole entry): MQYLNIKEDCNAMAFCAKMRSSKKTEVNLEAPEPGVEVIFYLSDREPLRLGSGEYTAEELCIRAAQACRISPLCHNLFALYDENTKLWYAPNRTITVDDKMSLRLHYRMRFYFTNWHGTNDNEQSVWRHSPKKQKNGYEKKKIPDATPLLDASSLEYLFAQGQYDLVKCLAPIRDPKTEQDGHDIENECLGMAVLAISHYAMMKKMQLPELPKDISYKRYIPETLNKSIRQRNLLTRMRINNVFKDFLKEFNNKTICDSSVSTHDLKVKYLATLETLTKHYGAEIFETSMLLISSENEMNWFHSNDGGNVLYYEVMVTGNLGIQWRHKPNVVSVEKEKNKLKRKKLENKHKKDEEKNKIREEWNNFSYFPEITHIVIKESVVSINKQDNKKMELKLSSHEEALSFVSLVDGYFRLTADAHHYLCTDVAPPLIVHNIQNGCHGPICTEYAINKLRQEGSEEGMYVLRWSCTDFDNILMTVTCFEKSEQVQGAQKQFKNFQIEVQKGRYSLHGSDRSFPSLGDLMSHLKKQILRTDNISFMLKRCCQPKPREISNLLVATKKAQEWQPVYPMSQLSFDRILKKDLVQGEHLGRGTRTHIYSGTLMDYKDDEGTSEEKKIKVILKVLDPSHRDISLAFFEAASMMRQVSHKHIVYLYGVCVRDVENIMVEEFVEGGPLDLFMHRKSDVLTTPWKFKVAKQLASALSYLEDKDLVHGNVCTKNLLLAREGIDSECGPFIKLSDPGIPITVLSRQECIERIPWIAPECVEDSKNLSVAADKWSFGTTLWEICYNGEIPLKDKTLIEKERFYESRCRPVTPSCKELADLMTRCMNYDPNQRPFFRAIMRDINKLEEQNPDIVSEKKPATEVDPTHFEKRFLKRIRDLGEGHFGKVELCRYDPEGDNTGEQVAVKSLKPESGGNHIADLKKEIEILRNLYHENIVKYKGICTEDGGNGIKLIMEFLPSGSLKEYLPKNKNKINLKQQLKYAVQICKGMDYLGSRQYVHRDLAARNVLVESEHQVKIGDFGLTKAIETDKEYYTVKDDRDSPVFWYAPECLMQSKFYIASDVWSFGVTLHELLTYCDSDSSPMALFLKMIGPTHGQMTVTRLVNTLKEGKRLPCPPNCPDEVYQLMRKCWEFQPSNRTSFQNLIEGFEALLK

[4] = target: Ribosomal protein S6 kinase alpha-2 (Homo sapiens) (UniProt Q15349); assay: Selectivity interaction (ProQinase) EUB0000171b RPS6KA2
Ribosomal protein S6 kinase alpha-2 (Homo sapiens), sequence (Q15349 whole entry): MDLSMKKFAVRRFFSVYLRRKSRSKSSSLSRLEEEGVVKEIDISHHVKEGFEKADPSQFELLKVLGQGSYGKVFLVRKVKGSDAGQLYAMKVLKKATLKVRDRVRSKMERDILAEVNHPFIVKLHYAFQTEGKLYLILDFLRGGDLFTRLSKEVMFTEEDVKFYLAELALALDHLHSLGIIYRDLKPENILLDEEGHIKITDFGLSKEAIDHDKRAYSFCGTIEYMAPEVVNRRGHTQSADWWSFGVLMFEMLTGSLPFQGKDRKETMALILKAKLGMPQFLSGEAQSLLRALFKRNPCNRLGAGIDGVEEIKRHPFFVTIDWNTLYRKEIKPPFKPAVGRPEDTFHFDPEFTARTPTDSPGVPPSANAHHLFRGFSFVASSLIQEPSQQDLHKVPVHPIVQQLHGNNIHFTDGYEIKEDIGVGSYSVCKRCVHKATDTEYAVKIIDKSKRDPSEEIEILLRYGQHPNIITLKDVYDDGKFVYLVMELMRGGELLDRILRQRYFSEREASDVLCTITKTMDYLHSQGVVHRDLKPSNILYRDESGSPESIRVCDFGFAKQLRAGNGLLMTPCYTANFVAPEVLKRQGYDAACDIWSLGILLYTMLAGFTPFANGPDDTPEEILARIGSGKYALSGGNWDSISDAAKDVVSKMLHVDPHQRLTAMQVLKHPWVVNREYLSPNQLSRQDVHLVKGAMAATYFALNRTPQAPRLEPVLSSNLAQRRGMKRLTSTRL

[5] = target: T2, Aurora kinase A (Homo sapiens) (UniProt O14965); assay: Selectivity interaction (KinomeScan (DiscoverX)) EUB0000607a STK6; settings: at 10 µM
T2 sequence (whole entry): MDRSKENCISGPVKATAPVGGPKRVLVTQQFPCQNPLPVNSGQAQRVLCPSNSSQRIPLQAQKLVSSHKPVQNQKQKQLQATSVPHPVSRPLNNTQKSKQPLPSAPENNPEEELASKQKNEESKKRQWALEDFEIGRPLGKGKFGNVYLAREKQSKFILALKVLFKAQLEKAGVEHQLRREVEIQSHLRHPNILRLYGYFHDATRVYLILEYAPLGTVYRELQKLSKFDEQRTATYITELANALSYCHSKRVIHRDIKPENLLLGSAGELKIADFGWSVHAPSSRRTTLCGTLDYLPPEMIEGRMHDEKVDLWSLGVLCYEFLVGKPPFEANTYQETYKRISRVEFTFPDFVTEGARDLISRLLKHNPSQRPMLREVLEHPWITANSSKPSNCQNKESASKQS

[6] = target: T3, Mitogen-activated protein kinase kinase kinase 15 (Homo sapiens) (UniProt Q6ZN16); assay: Selectivity interaction (KinomeScan (DiscoverX)) EUB0000618a MAP3K15; settings: at 10 µM
T3 sequence (whole entry): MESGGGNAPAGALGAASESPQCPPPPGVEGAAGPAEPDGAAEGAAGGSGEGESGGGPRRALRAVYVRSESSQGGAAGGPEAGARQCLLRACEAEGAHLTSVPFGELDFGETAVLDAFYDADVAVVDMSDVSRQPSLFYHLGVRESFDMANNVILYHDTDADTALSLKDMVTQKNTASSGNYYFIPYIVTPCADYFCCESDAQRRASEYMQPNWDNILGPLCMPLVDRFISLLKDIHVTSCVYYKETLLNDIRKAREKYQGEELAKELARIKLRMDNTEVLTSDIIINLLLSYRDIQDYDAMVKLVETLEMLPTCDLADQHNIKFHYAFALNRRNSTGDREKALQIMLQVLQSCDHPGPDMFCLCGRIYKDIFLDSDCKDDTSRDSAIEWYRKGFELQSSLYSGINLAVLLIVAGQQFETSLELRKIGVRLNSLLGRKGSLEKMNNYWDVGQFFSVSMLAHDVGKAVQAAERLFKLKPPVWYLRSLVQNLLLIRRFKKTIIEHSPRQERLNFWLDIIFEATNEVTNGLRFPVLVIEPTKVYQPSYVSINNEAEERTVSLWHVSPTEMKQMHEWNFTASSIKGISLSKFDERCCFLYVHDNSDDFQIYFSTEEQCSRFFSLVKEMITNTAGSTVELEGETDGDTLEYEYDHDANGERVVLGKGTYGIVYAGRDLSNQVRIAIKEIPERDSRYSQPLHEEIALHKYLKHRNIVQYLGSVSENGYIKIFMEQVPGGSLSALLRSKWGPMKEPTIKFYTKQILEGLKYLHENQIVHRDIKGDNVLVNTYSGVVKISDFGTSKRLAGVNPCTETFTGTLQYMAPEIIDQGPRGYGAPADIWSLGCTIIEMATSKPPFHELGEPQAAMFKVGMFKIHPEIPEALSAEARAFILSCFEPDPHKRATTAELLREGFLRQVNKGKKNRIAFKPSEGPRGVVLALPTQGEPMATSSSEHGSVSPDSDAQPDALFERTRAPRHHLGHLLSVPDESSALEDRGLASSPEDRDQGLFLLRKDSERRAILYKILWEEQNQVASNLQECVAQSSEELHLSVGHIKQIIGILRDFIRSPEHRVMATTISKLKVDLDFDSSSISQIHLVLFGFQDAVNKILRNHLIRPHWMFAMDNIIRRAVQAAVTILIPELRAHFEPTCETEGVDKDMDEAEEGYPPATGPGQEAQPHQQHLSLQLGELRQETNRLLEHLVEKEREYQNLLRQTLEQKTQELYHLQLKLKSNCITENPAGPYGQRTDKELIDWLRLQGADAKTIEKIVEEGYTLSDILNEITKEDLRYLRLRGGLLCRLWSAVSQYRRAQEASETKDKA

[7] = target: Cyclin-dependent kinase 9 (Homo sapiens, UniProt P50750); assay: Selectivity interaction (Ambit KINOMEscan and KiNATiv profiling in Jurkat cells) EUB0000090b CDK9; assay type: cell-based; settings: at 1 µM
Cyclin-dependent kinase 9, sequence (P50750 whole entry): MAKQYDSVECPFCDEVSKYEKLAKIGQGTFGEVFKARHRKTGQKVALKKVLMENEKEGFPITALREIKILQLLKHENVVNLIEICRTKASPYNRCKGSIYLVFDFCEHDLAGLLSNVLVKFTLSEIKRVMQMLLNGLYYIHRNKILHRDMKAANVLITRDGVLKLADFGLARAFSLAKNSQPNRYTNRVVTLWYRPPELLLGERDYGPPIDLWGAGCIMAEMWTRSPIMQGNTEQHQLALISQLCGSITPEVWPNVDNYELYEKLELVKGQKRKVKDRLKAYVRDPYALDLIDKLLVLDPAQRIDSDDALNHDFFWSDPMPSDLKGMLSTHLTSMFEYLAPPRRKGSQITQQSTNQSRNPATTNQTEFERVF

Serine/threonine-protein kinase MARK1 (Homo sapiens), sequence (Q9P0L2 whole entry, looked up): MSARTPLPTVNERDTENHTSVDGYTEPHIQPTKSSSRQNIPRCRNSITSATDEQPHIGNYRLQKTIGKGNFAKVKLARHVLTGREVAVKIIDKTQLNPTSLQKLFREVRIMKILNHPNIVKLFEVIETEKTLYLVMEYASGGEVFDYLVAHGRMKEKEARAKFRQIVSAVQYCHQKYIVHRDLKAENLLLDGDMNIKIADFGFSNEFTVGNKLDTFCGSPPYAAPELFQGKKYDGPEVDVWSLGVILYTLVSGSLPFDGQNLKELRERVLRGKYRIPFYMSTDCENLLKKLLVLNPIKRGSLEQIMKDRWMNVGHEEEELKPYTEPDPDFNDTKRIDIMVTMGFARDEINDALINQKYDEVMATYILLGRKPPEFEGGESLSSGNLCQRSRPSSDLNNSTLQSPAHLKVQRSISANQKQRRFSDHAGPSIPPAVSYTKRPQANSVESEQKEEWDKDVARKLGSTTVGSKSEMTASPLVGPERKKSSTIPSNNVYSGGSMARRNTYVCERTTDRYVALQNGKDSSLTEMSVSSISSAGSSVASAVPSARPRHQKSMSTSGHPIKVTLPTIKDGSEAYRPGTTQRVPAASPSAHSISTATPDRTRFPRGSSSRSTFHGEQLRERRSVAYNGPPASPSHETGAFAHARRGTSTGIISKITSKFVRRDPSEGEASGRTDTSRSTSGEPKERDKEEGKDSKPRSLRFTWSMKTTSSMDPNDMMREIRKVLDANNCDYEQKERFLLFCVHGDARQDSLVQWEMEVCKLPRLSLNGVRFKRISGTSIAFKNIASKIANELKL

Compound `Cc1ccc(-c2ccc3c(ccc4sc5c(c43)NC[C@@H](C)NC5=O)n2)cn1` has a % of inhibition [1] of 5%.

`CN(C)CCOc1ccc(-c2nc(-c3ccncc3)c(-c3ccc4c(c3)CC/C4=N\O)[nH]2)cc1` was tested, and the % of control [2] was 94%.

`C=CC(=O)Nc1cccc(C(=O)Nc2ccc(Nc3cc(-c4[nH]c(SC)nc4C)ccn3)cc2)c1` showed a % of control ([3]; at 1 µM) of 98%, a % of control ([3]; at 5 µM) of 96% and a % of control ([4]; at 1 µM) of 88%. The % of control ([4]; at 5 µM) was 69%.

Work on `CNC(=O)Nc1ccc(-c2nc(N3CC4CCC(C3)O4)c3cnn(C4CCC5(CC4)OCCO5)c3n2)cc1` yielded a % of control [5] of 100%.

With `O[C@H]1CC[C@H](Nc2ncc3nc(Nc4c(F)cc(F)cc4F)n([C@H]4CCOC4)c3n2)CC1` the % of control [6] was 100%.

Compound `CN(C)C/C=C/C(=O)Nc1ccc(C(=O)N2CCCC(Nc3ncc(Cl)c(-c4c[nH]c5ccccc45)n3)C2)cc1` (centres undefined) has a % of control [7] of 58%.
